Inconclusive results and toxic doses are left out. How the source made its calls: active means survival T/C of 150% or more; inactive means T/C below 125% in these data.
Test system: BDF1 mice, B16 melanoma ip, median survival T/C
Assay: NCI In Vivo Anticancer Drug Screen. Data for tumor model B16 Melanoma (intraperitoneal) in B6D2F1 (BDF1) mice
Conditions: endpoint: median survival time, higher = longer survival
Experimental: The antitumor activity of compounds was measured in mice bearing transplantable tumors. Survival or tumor size were measured and the results are expressed as the measurement made in the treated group (T) divided by the measurement made in the vehicle treated control group (C). The tumor model used in this assay is B16 Melanoma (intraperitoneal) in B6D2F1 (BDF1) mice

[1] = dose: 6.25 mg/kg/injection, schedule: Q01DX009 (ip), vehicle: saline
[2] = dose: 100.0 mg/kg/injection, schedule: Q01DX009 (ip), vehicle: saline with Tween-80
[3] = dose: 200.0 mg/kg/injection, schedule: Q01DX009 (ip), vehicle: saline with Tween-80
[4] = dose: 400.0 mg/kg/injection, schedule: Q01DX009 (ip), vehicle: saline with Tween-80
[5] = dose: 100.0 mg/kg/injection, schedule: Q04DX003 (ip), vehicle: saline with Tween-80
[6] = dose: 200.0 mg/kg/injection, schedule: Q04DX003 (ip), vehicle: saline with Tween-80
[7] = dose: 25.0 mg/kg/injection, schedule: Q01DX009 (ip), vehicle: Klucel (hydroxypropylcellulose) (HPC)
[8] = dose: 50.0 mg/kg/injection, schedule: Q01DX009 (ip), vehicle: Klucel (hydroxypropylcellulose) (HPC)
[9] = dose: 100.0 mg/kg/injection, schedule: Q01DX009 (ip), vehicle: Klucel (hydroxypropylcellulose) (HPC)
[10] = dose: 200.0 mg/kg/injection, schedule: Q01DX009 (ip), vehicle: Klucel (hydroxypropylcellulose) (HPC)

Measured: T/C

C=COC(=O)CCCCCCCCCCCCCCCCC
inactive: dose: 20.0 mg/kg/injection, schedule: Q01DX009 (ip), vehicle: Klucel (hydroxypropylcellulose) (HPC) 94 % of control | dose: 40.0 mg/kg/injection, schedule: Q01DX009 (ip), vehicle: Klucel (hydroxypropylcellulose) (HPC) 94 % of control | dose: 80.0 mg/kg/injection, schedule: Q01DX009 (ip), vehicle: Klucel (hydroxypropylcellulose) (HPC) 92 % of control

CCCOP(OCCC)OCCC
inactive: [1] 109 % of control | dose: 12.5 mg/kg/injection, schedule: Q01DX009 (ip), vehicle: saline 118 % of control | dose: 25.0 mg/kg/injection, schedule: Q01DX009 (ip), vehicle: saline 100 % of control | dose: 50.0 mg/kg/injection, schedule: Q01DX009 (ip), vehicle: saline 92 % of control

CCCC(O)C(CC)CO (stereo unspecified)
inactive: [2] 100 % of control | [3] 121 % of control | [4] 115 % of control

CCOC(=O)CCCN(c1sc(C)c(C)c1C(=O)OCC)S(=O)(=O)c1ccc(C)cc1
inactive: dose: 50.0 mg/kg/injection, schedule: Q04DX003 (ip), vehicle: saline with Tween-80 111 % of control | [5] 105 % of control | [6] 111 % of control | dose: 400.0 mg/kg/injection, schedule: Q04DX003 (ip), vehicle: saline with Tween-80 100 % of control

C[C@@H]1C(=O)C[C@H]2C(C)(C)CCC[C@]2(C)[C@@]1(O)CCc1ccoc1
inactive: [7] 99 % of control | [8] 89 % of control | [9] 93 % of control | [10] 86 % of control

Cc1cc(C)c(CCl)cc1CCl
inactive: dose: 10.0 mg/kg/injection, schedule: Q01DX009 (ip), vehicle: saline with Tween-80 110 % of control | dose: 20.0 mg/kg/injection, schedule: Q01DX009 (ip), vehicle: saline with Tween-80 95 % of control | dose: 20.0 mg/kg/injection, schedule: Q04DX003 (ip), vehicle: saline with Tween-80 100 % of control | dose: 40.0 mg/kg/injection, schedule: Q01DX009 (ip), vehicle: saline with Tween-80 102 % of control | dose: 40.0 mg/kg/injection, schedule: Q04DX003 (ip), vehicle: saline with Tween-80 100 % of control

Cc1c([C@H](C)[C@@H]2NC[C@@H](C)C[C@H]2O)ccc2c1C[C@H]1[C@H]2CC=C2C[C@@H](O)CC[C@@]21C
inactive: dose: 1.5 mg/kg/injection, schedule: Q01DX009 (ip), vehicle: saline 97 % of control | dose: 3.0 mg/kg/injection, schedule: Q01DX009 (ip), vehicle: saline 104 % of control

CS(=O)(=O)OCCN1CCC2(CC1)SSC1(CCN(CCOS(C)(=O)=O)CC1)S2
inactive: dose: 3.13 mg/kg/injection, schedule: Q01DX009 (ip), vehicle: saline 106 % of control | [1] 106 % of control

CC(O)c1cc(Cl)ccc1Cl (stereo unspecified)
inactive: [2] 93 % of control | [5] 107 % of control | [3] 115 % of control | [6] 107 % of control | [4] 103 % of control

CC1CC(C)OS(=O)O1 (stereo unspecified)
inactive: dose: 12.5 mg/kg/injection, schedule: Q01DX009 (ip), vehicle: saline sonified 108 % of control | dose: 25.0 mg/kg/injection, schedule: Q01DX009 (ip), vehicle: saline sonified 100 % of control | dose: 50.0 mg/kg/injection, schedule: Q01DX009 (ip), vehicle: saline sonified 100 % of control

CCOC(=O)CNC(=O)Sc1ccc(C(C)(C)C)cc1
inactive: dose: 12.5 mg/kg/injection, schedule: Q01DX009 (ip), vehicle: Klucel (hydroxypropylcellulose) (HPC) 97 % of control | [7] 101 % of control | [8] 104 % of control | [9] 106 % of control | [10] 106 % of control | dose: 400.0 mg/kg/injection, schedule: Q01DX009 (ip), vehicle: Klucel (hydroxypropylcellulose) (HPC) 120 % of control
